According to US5326902A, “Oxyalkyne compounds, pharmaceutical compositions containing them and processes for preparing such compounds and compositions” (Gruenenthal GmbH, priority 1992, dated 1994):

What was measured:
Type in all cases: cell-based
[1] = biological target: T1, 12-lipoxygenase (Homo sapiens, UniProt P18054); assay: Inhibition of 12-HETE- and 5S,12S-DiHETE-synthesis induced by FMLP/merthiolate of human polymorphonuclear leukocytes and thrombocytes; settings: coincubation of human granulocytes and thrombocytes, read-out: IC50-value of the inhibitory action on 12-lipoxygenase
T1 sequence (P18054 1-663): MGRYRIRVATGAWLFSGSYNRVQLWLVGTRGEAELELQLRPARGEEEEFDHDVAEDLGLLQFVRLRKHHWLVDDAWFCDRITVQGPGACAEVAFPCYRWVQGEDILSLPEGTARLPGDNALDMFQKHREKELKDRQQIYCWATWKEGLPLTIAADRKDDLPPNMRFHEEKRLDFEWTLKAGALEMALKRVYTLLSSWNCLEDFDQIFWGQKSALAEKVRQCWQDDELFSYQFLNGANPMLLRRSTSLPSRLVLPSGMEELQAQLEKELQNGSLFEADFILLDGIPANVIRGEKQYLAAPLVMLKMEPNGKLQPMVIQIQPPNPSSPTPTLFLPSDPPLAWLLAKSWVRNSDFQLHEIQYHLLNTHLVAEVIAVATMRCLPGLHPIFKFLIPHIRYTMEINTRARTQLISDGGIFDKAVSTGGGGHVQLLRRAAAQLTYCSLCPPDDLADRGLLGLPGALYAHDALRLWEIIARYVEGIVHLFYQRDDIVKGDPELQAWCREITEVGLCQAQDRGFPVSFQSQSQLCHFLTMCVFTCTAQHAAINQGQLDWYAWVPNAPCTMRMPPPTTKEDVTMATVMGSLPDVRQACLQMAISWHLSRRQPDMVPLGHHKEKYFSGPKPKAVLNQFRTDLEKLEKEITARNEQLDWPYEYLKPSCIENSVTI
Procedure: (§1) Human granulocytes were isolated by dextran sedimentation and a Percoll gradient method and suspended in HBSS (Hanks buffered saline solution) at 1×10^7 cells/ml. The cells were incubated in the presence of a compound according to the invention or a solvent (ethanol and/or dimethyl sulfoxide) at 37° C. for 2 minutes, then with merthiolate (sodium ethylmercurithiosalicylate; 40 μM) for 2 minutes and thereafter with FMLP (formyl-methionyl-leucylphenylalanine; 10^-7 M) for 15 minutes. After solid phase extraction, the metabolites of arachidonic acid 5-HETE, LTB4, 6-trans-LTB4 -isomers, 20-OH-LTB4 and 20-COOH-LTB4 were identified by RP-HPLC (M. Haurand and L. Flohe in Biochem. Pharmacol. 38, 2129 to 2137 (1989)).
Coincubations of human granulocytes and thrombocytes were carried out and investigated for inhibition of leukotriene-synthesis induced by FMLP/merthiolate. 12-HETE and 5S, 12S-DiHETE were additionally included into the evaluation. The IC50 -value of the inhibitory action on 12-lipoxygenase was 5 μmolar when the compound prepared according to Example 1 was used.

[2] = test system: Leukotriene-synthesis; assay: Inhibition of Leukotriene-synthesis Induced by FMLP/merthiolate of Human Polymorphonuclear Leukocytes; settings: Leukocyte, 5 minutes preincubation at 37° C., centrifuged and resuspended in HBSS before merthiolate (40 μM) and FMLP (10^-7 M), read-out: IC50-value of the reversible inhibitory action
Procedure: as §1
To investigate the reversibility of the inhibitory action, the cells were incubated with a compound according to the invention or a solvent (ethanol and/or dimethyl sulfoxide) at 37° C. for 5 minutes, centrifuged at 300 × g for 5 minutes, and resuspended in 2 ml of HBSS. Then the cells were incubated with merthiolate (40 μM) at 37° C. for 2 minutes and thereafter with FMLP (10^-7 M) for 15 minutes. The IC50 -value of the reversible inhibitory action was 2 μmolar when the compound prepared according to Example 1 was used.

[3] = biological target: T1, 12-lipoxygenase; assay: Inhibition of 12-lipoxygenase in human blood; design: 3 ml aliquots of human whole blood treated with heparin; from tissue; host or cells: human whole blood (heparinized); settings: human whole blood; calcium ionophore A 23 187 15 μg/ml; 37° C., 30 minutes; 12-HETE by HPLC
Procedure: 3 ml aliquots of human whole blood treated with heparin were incubated either with a compound according to the invention or with dimethyl sulfoxide at 37° C. for 5 minutes. Then 12-lipoxygenase was activated by addition of calcium ionophore A 23 187 (15 μg/ml blood). After incubation at 37° C. for 30 minutes and centrifugation, cell-free plasma was obtained. Plasma protein was precipitated by addition of 2 ml of ethanol per ml of plasma and then separated by centrifugation. After adjusting the ethanol content in the supernatant with water to 10% by volume, the 12-lipoxygenase product 12-HETE was enriched by solid phase extraction using an octadecyl silica column. The methanolic eluate was evaporated to dryness, diluted in 40% by volume of methanol, and the 12-HETE-content was determined by HPLC. The IC50 -values of the compounds of the invention prepared according to Examples 1, 8 and 16 were 2, 4 and 3 μmolar, respectively.

Structure (SMILES): CC(=O)N(O)Cc1ccc(C(O)C#Cc2ccccc2)cc1 (racemic) [Example 1, N-Hydroxy-N-[4-[1-hydroxy-3-phenyl-prop-2-yn-1-yl]benzyl]acetamide]
- IC50 [1]: 5 µM
- IC50 [2]: 2 µM
- IC50 [3]: 2 µM
